Measurements published in US20090023186A1, “USE OF VALPROIC ACID FOR ENHANCING PRODUCTION OF RECOMBINANT PROTEINS IN MAMMALIAN CELLS” (EXCELLGENE SA, priority 2007, published 2009).

Test system: HEK293E cells
Assay: Combination with IDMTs, IgG batch yield by ELISA (Example 6)
Assay type: cell-based, Human
Conditions: VPA 4 mmol/l; no addition = 100%; day 5 after transfection
Method: 10 million suspension-adapted HEK293E cells were resuspended in 0.5 ml of Ex-Cell 293 HEK 293 serum-free medium with 4 mmol/l L-glutamine (Cat. No. 14571C-[…]; Lot No. 6A0093; SAFC Biosciences, Lenexa, Kans., USA, “Ex-Cell” medium; note: “Ex-Cell” medium-as used herein-refers to a medium comprising 4 mmol/l L-glutamine) in a 50-ml filter tube each (TPP AG, Trasadingen, Switzerland; Cat. No. 87050, Lot 20050174). In a separate set, 10 million suspension-adapted CHO DG44 cells were resuspended in 0.5 ml of ProCHO5 serum-free medium with 4 mmol/[…] hypoxanthine and 0.194 g/l thymidine (BioWhittaker (Lonza), Belgium; Cat. No. BE12-[…]; Lot No. 7MB0040; “ProCHO5” medium; note: “ProCHO5” medium-as used herein-refers to a medium comprising 4 mmol/[…] hypoxanthine and 0.194 g/l thymidine) in a 50-ml filter tube each (TPP AG, Trasadingen, Switzerland; Cat. No. 87050, Lot 20050174). Then 12.5 μg plasmid DNA at a concentration of 1 μg/μl was added in each tube with the following composition 50% (6.25 μg) p-LC (SEQ ID NO: 1) 50% (6.25 μg) p-HC (SEQ ID NO: 3). Plasmid p-LC comprises the genetic information for the production of the light chain of an IgG antibody, plasmid p-HC comprises the genetic information for the production of the heavy chain of an IgG antibody. The particular vector constructs used in the present invention can also be obtained from the inventors. The inventors can be contacted via e-mail at […]. […] In short, Goat anti-human kappa light chain IgG (Biosource) was used for coating the ELISA-plates, and with AP-conjugated goat anti-human gamma chain IgG (Biosource) the synthesized IgG1 was detected. […] Absorption was measured at 405 nm against 490 nm using a microplate reader (SPECTRAmaxTM340; Molecular Devices, Palo Alto, Calif., USA).

CCCC(CCC)C(=O)O [VPA, valproic acid]
Fold increase in batch yield over control: 520% ± 30%
